According to BindingDB's records for doi:10.1016/j.ejmech.2019.01.082 (Fudan University, 2019):

Assay: Inverse agonist activity at RORgammat in mouse CD4 positive T cells assessed as inhibition of Th17 cell differentiation by measuring IL-17 release after 4 days by cellular staining based flow cytometry

| IC50 [nM] | SMILES |
| --- | --- |
| 1780 | N#Cc1cccc(C(=O)Nc2cccc3c2CCC3N2CCN(C(=O)C3CCCC3)CC2)c1 (centres undefined) |
| 2660 | N#Cc1cccc(C(=O)Nc2ccc3c(c2)C(N2CCN(C(=O)C4CCCC4)CC2)CC3)c1 (centres undefined) |
| 385 | N#Cc1cccc(C(=O)Nc2cccc3c2CCC3N2CC3CCC(C2)N3C(=O)C2CCCC2)c1 (centres undefined) |
| 423 | N#Cc1cccc(C(=O)Nc2ccc3c(c2)C(N2CC4CCC(C2)N4C(=O)C2CCCC2)CC3)c1 (centres undefined) |
